This test addresses T1, endogenous CETP from serum (Homo sapiens, UniProt P11597).
T1 construct: yielding a concentration of approximately 15 nM endogenous CETP in the assay; from tissue; host or cells: human serum
T1 sequence (P11597 18-493): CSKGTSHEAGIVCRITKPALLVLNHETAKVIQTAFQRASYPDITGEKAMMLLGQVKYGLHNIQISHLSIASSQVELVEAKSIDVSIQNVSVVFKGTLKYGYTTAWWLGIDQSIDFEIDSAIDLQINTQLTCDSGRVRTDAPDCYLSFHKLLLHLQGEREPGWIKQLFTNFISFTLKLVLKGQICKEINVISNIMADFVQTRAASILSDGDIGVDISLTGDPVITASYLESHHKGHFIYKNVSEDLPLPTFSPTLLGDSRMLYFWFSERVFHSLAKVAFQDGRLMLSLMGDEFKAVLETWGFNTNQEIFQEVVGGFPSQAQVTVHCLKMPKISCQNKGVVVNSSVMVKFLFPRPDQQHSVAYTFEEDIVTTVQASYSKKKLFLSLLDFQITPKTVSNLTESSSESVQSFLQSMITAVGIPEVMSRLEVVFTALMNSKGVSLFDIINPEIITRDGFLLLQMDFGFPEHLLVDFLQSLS
Briefly: RTA assay in 95% human serum (in vitro radioactive assay of CETP-catalyzed CE and TG transfer). It is filed as biochemical. An excerpt: In Vitro Radioactive Assays of CETP-Catalyzed CE and TG Transfer (RTA Assay)
Reagents and sources are: [3H] cholesteryl oleate (GE #TRK.886), [3H] Triolein (Perkin-Elmer NET-431), Butylated hydroxyl toluene (Aldrich, #D4740-4), DOPC (Sigma, # P6354), Sodium Bromide (Fisher scientific #S255-500), PEG 8000 (Fisher, #BP233-1), and human HDL (Intracel Corp #RP-036).
Both assays measure the transfer of [3H] cholesteryl oleate or [3H] triolein from exogenous LDL to HDL.
Radiolabeled donor particles are generated by first combining 100 μl of 200 μM butylated hydroxyl toluene in CHCl3, 216 μL of 21.57 mM DOPC in EtOH, and either 500 μCi [3H]-triolein (Perkin Elmer #NET-431) or 500 μCi [3H]-cholesteryl oleate (GE #TRK886) in a glass tube. Reagents are mixed, dried under nitrogen, and then resuspended in 2 mL of 50 mM Tris, 27 μM EDTA at pH 7.4. After a brief vortex, the solution is sonicated until clear and mixed with 20 mL of fresh human serum. The mixture is incubated overnight at 37° C. The [3H] labeled LDL substrate is separated at 1.063 g/ml density by sequential ultracentrifugal flotation in NaBr according to the method of Havel, Eder, et al., 1955, and Chapman, Goldstein, et al., 1981. Once isolated the particles are dialyzed 3× in CETP buffer (50 mM Tris, pH 7.4, 100 mM NaCl, 1 mM EDTA). Human HDL is purchased from Intracel and used as the acceptor particles.
Transfer assays are performed in a 96-well v-bottom polypropylene plate. For the RTA using recombinant CETP (2% RTA), an assay cocktail is prepared with the final concentrations 128 μg/mL HDL, 20 nM rCETP, 2% human serum, and 1×CETP buffer. 1 μL of each test compound diluted in DMSO is added to 47 μL of assay cocktail per well and incubated at 37° C. for 1 hour. To initiate the transfer reaction, 2 μL radiolabeled LDL is added. After an additional 60 min of incubation at 37° C., the transfer action is terminated by precipitation of LDL with an equal volume of 20% WN PEG 8000. The plates are centrifuged at 2000 rpm for 30 minutes at 4° C. A 40 μL aliquot of the HDL-containing supernatant is transferred to a Packard Optiplate™ with 200 μL of MicroScint™ 20. After mixing, plates are counted by liquid scintillation. Counts present in the supernatant for blanks (wells containing only HDL acceptor, CETP buffer and DMSO) are subtracted from those containing test compounds and used to correct for non-specific transfer.
This is then combined with HDL and CETP buffer and the reaction proceeds as above and is terminated as described.
Comparison of the counts of samples with inhibitors to an uninhibited (DMSO only) positive control yield a percent inhibition. A plot of percent inhibition vs. log of inhibitor concentration, fit to a Sigmoidal 4 parameter equation is used to calculate IC50.
Starting materials are commercially available or are made using known procedures or as shown below. The examples may be synthesized according to the general schemes provided below and by using the synthetic intermediates that are described. […] When compounds of Formula I are mentioned herein, such compounds include compounds defined generically by Formula I and also the specific examples disclosed herein.

Setting [1] is: RTA assay in 95% human serum, endogenous CETP, read-out: RTA (95% HS).
[2] abbreviates: Table 1, data generally obtained using the RTA assay in 95% human serum, read-out: IC50.

Where two headings read alike, the source gives them in different places.

In the case of `COc1ncc(-c2ccc(C(=O)O)cc2C)cc1-c1ccc(C(F)(F)F)cc1[C@@H]1CC[C@H]2[C@@H](c3cc(C(F)(F)F)cc(C(F)(F)F)c3)NC(=O)N12` [Example 1, 4-(5-(2-((1R,5 S,7aS)-1-(3,5-bis(trifluoromethyl)phenyl)-3-oxohexahydro-1H-pyrrolo[1,2-c]imidazol-5-yl)-4-(trifluoromethyl)phenyl)-6-methoxypyridin-3-yl)-3-methylbenzoic acid], the IC50 under setting [1] came out at 335 nM.
Still for that read-out and setting: the figure for `COc1ncc(-c2ccc(C(=O)NC3(C#N)CC3)cc2C)cc1-c1ccc(C(F)(F)F)cc1[C@@H]1CC[C@H]2[C@@H](c3cc(C(F)(F)F)cc(C(F)(F)F)c3)NC(=O)N12` [Example 2, 4-{5-[2-{(1R,5S,7aS)-1-[3,5-bis(trifluoromethyl)phenyl]-3-oxohexahydro-1H-pyrrolo[1,2-c]imidazol-5-yl}-4-(trifluoromethyl)phenyl]-6-methoxypyridin-3-yl}-N-(1-cyanocyclopropyl)-3-methylbenzamide] is 276 nM; for `COc1ccc(C2CCC(C(=O)O)CC2)cc1-c1ccc(C(F)(F)F)cc1[C@@H]1CC[C@H]2[C@@H](c3cc(C(F)(F)F)cc(C(F)(F)F)c3)NC(=O)N12` (stereo partly drawn) [Example 3, 4-(2′-((1R,5 S,7aS)-1-(3,5-bis(trifluoromethyl)phenyl)-3-oxohexahydro-1H-pyrrolo[1,2-c]imidazol-5-yl)-6-methoxy-4′-(trifluoromethyl)-[1,1′-biphenyl]-3-yl)cyclohexanecarboxylic acid] it is 1730 nM.
In the case of `COc1ncc(-c2ccc(C(=O)O)cc2C)cc1-c1ccc(C(F)(F)F)cc1[C@@H]1CC[C@H]2[C@@H](c3cc(C(F)(F)F)cc(C(F)(F)F)c3)N(C)C(=O)N12` [Example 4, 4-{5-[2-{(1R,5S,7aS)-1-[3,5-bis(trifluoromethyl)phenyl]-2-methyl-3-oxohexahydro-1H-pyrrolo[1,2-c]imidazol-5-yl}-4-(trifluoromethyl)phenyl]-6-methoxypyridin-3-yl}-3-methylbenzoic acid], the IC50 under setting [2] was found to be 1500 nM.
Regarding `COc1ncc(-c2c(C)cc(C(=O)O)cc2C)cc1-c1ccc(C(F)(F)F)cc1[C@@H]1CC[C@H]2[C@@H](c3cc(C(F)(F)F)cc(C(F)(F)F)c3)NC(=O)N12` [Example 5, 4-{5-[2-{(1R,5S,7aS)-1-[3,5-bis(trifluoromethyl)phenyl]-3-oxohexahydro-1H-pyrrolo[1,2-c]imidazol-5-yl}-4-(trifluoromethyl)phenyl]-6-methoxypyridin-3-yl}-3,5-dimethylbenzoic acid], the IC50 under setting [2] came out at 392 nM.
Still for that read-out and setting: the figure for `COc1cc(F)c(C(C)C)cc1-c1ccc(C(F)(F)F)cc1[C@@H]1CC[C@H]2[C@@H](c3cc(F)cc(C(F)(F)F)c3)NC(=O)N12` [Example 6] is 1070 nM; for `COc1ccc(CCC(=O)O)cc1-c1ccc(C(F)(F)F)cc1[C@@H]1CC[C@H]2[C@@H](c3cc(C(F)(F)F)cc(C(F)(F)F)c3)NC(=O)N12` [Example 7, 3-[2′-{(1R,5S,7aS)-1-[3,5-bis(trifluoromethyl)phenyl]-3-oxohexahydro-1H-pyrrolo[1,2-c]imidazol-5-yl}-6-methoxy-4′-(trifluoromethyl)biphenyl-3-yl]propanoic acid] it is 1200 nM; for `COc1ccc(-c2ccc(C(=O)O)cc2C)cc1-c1ccc(C(F)(F)F)cc1[C@@H]1CC[C@H]2[C@@H](c3cc(C(F)(F)F)cc(C(F)(F)F)c3)NC(=O)N12` [Example 9] it is 1360 nM.
Same read-out and setting: the figure for `COc1ccc(CCC(=O)O)cc1-c1ccc(C(F)(F)F)cc1[C@@H]1CC[C@H]2[C@@H](c3cc(C(F)(F)F)cc(C(F)(F)F)c3)N(C)C(=O)N12` [Example 10, 3-[2′-{(1R,5S,7aS)-1-[3,5-bis(trifluoromethyl)phenyl]-2-methyl-3-oxohexahydro-1H-pyrrolo[1,2-c]imidazol-5-yl}-6-methoxy-4′-(trifluoromethyl)biphenyl-3-yl]propanoic acid] is 2950 nM.
Take `COc1ccc(-c2ccc(C(=O)O)cc2C)cc1-c1ccc(C(F)(F)F)cc1[C@@H]1CC[C@H]2[C@@H](c3cc(C(F)(F)F)cc(C(F)(F)F)c3)N(C)C(=O)N12` [Example 12, 2″-{(1R,5S,7aS)-1-[3,5-bis(trifluoromethyl)phenyl]-2-methyl-3-oxohexahydro-1H-pyrrolo[1,2-c]imidazol-5-yl}-4′-methoxy-2-methyl-4″-(trifluoromethyl)-l,1′:3′,l″-terphenyl-4-carboxylic acid]: under setting [2], the IC50 turned out to be 1420 nM.
With `COc1ccc(-c2cccnc2C)cc1-c1ccc(C(F)(F)F)cc1[C@@H]1CC[C@H]2[C@@H](c3cc(C(F)(F)F)cc(C(F)(F)F)c3)NC(=O)N12` [Example 13, (1R,5S,7aS)-1-[3,5-bis(trifluoromethyl)phenyl]-5-[2′-methoxy-5′-(2-methylpyridin-3-yl)-4-(trifluoromethyl)biphenyl-2-yl]hexahydro-3H-pyrrolo[1,2-c]imidazol-3-one], under setting [2], the IC50 came out at 795 nM.
Take `COc1ccc(-c2ccc(C(=O)O)nc2C)cc1-c1ccc(C(F)(F)F)cc1[C@@H]1CC[C@H]2[C@@H](c3cc(C(F)(F)F)cc(C(F)(F)F)c3)NC(=O)N12` [Example 14, 5-[2′-{(1R,5S,7aS)-1-[3,5-bis(trifluoromethyl)phenyl]-3-oxohexahydro-1H-pyrrolo[1,2-c]imidazol-5-yl}-methoxy-4′-(trifluoromethyl)biphenyl-3-yl]-6-methylpyridine-2-carboxylic acid]: under setting [2], the IC50 was found to be 1930 nM.
The same measure, in the same setting: under `COc1ccc([C@H]2[C@H](C)C(=O)N[C@@H]2C)cc1-c1ccc(C(F)(F)F)cc1[C@@H]1CC[C@H]2[C@@H](c3cc(C(F)(F)F)cc(C(F)(F)F)c3)NC(=O)N12` [Example 15, (1R,5S,7aS)-1-[3,5-bis(trifluoromethyl)phenyl]-5-{5′-[(2R,3R,4S)-2,4-dimethyl-5-oxopyrrolidin-3-yl]-2′-methoxy-4-(trifluoromethyl)biphenyl-2-yl}hexahydro-3H-pyrrolo[1,2-c]imidazol-3-one] stands 1740 nM; under `COc1ccc(-c2ccc(C(=O)O)cc2C)cc1-c1ccc(C(F)(F)F)cc1[C@@H]1CC[C@H]2[C@@H](c3cc(F)cc(C(F)(F)F)c3)NC(=O)N12` [Example 16, 2″-{(1R,5S,7aS)-1-[3-fluoro-5-(trifluoromethyl)phenyl]-3-oxohexahydro-1H-pyrrolo[1,2-c]imidazol-5-yl}-4′-methoxy-2-methyl-4″-(trifluoromethyl)-1,1′:3′,1″-terphenyl-4-carboxylic acid], 1510 nM; under `COc1ccc(CCC(=O)O)cc1-c1ccc(C(F)(F)F)cc1[C@@H]1CC[C@H]2[C@@H](c3cc(F)cc(C(F)(F)F)c3)NC(=O)N12` [Example 17, 3-[2′-{(1R,5S,7aS)-1-[3-fluoro-5-(trifluoromethyl)phenyl]-3-oxohexahydro-1H-pyrrolo[1,2-c]imidazol-5-yl}-6-methoxy-4′-(trifluoromethyl)biphenyl-3-yl]propanoic acid], 3160 nM.
